# Experimental data reported in the METLIN SMRT retention time set (Domingo-Almenara et al. 2019).
# Assay: gradient 5% acetonitrile 3 min, to 50% in 2 min, to 85% in 15 min, held 3 min, 100 µL/min
# Conditions: column: Zorbax Extend-C18 2.1 x 50 mm; eluents: water / acetonitrile, 0.1% formic acid
# Method in brief: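 Values are retention times taken from adduct peaks that software picked and an analyst inspected. The pure standards were run as mixtures of ~100 molecules on HPLC linked to a quadrupole time-of-flight mass spectrometer, in positive and negative ionization mode. A Zorbax Extend-C18 column (2.1 × 50 mm, 1.8 μm) was used at 100 μL/min with water and acetonitrile, each including 0.1% formic acid.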
row,SMILES,RP-LC retention time [s]
1,CCOc1ccc(Cl)cc1S(=O)(=O)N1CCC(C(=O)Nc2ccc3c(c2)OCCO3)CC1,1150
2,Cc1ccc(N2CCN(C(=O)C(C)(C)C)CC2)nn1,531
3,C[C@@H](Oc1cc(-n2cnc3ccc(CN4CCN(C)CC4)cc32)sc1C(N)=O)c1ccccc1C(F)(F)F,690
4,CCn1cnc(S(=O)(=O)N2CCC(C(=O)NC3CCCCCC3)CC2)c1,737
5,CCc1noc(-c2nc(-c3ccc(OC)cc3OC)no2)n1,976
6,CSc1nnc(-c2nn(C)c3c2CN(C(=O)Cc2ccc(C)cc2)CC3)n1C,736
7,CCCCS(=O)(=O)c1cc2c(cc1NC(=O)c1ccccc1Br)n(C)c(=O)n2C,896
8,CS(=O)(=O)c1ccc(-c2cnc(N)c(C(=O)Nc3ccccc3)n2)cc1,937
9,CCn1cc(CCN2CCN(S(=O)(=O)c3ccc(C)c(F)c3)CC2)c2cccnc21,677
10,CCNc1nc(N2CCCC2)nc(-n2cnc(SC)n2)n1,885
11,Cc1cc(C)c(NS(=O)(=O)c2cc(-c3nc(C)c(C)s3)sc2C)c(C)c1,1260
12,CC(C)CNc1nc2ccncc2n(Cc2ccccc2)c1=O,672
13,CNC(=O)c1ccc(-c2nc3cc(NS(=O)(=O)c4ccc(F)c(Cl)c4)ccc3n2C)cc1,674
14,COc1ccc(OCC2c3cc(OC)c(OC)cc3CCN2C(=O)c2cccc(Cl)c2)cc1 (configuration not stated),1120
15,Cn1cc(CCN2CCC(C(=O)NC3CCCCCC3)CC2)c2cccnc21,616
16,Cc1csc2nc(CSc3nnc(-c4ccccc4F)o3)cc(=O)n12,799
17,CCNc1cc(N2CCCC(CCC(=O)N3CCc4ccccc4C3)C2)ncn1 (configuration not stated),694
18,Cc1ccc(CNC(=O)Cn2ccc3sccc3c2=O)cc1,740
19,N#Cc1ccc(NC(=O)C2CCN(S(=O)(=O)c3cc(-c4noc(C5CCC5)n4)cs3)CC2)cc1,1050
20,CCC(=O)Nc1ccc(CCc2nc3ccc(C(=O)NCCOC)cc3[nH]2)cc1,567
21,O=C(CCc1c(-c2ccc(Br)cc2)nc2ccccn12)NCCCc1ccccc1,722
22,O=C(Cn1c(=O)cc(C(=O)N2CCCC2)c2ccccc21)Nc1ccccc1Cl,714

row,SMILES,RP-LC retention time [s]
1,Cc1ccc(NC(=O)c2cc(C3CC3)n3nccc3n2)c(F)c1,1150
2,Cc1cc(C)cc(NC(=O)c2cc(C)n3nccc3n2)c1,1020
3,COc1ccc(CN2CCC(NC(=O)CCc3c(C)noc3C)C2)cn1 (configuration not stated),571
4,Cn1c(N2CCCC(C(=O)NCc3ccc(F)cc3)C2)cc(=O)n(C)c1=O (configuration not stated),680
5,CC1CCCN(C(=O)c2cn(-c3ccc(S(=O)(=O)N4CCCC(C)C4)cn3)cn2)C1 (configuration not stated),939
6,O=C(Nc1cc(F)ccc1Cl)c1cnc(-c2ccccc2)nc1-c1ccncc1,1000
7,Cc1ccc(Nc2c(-c3cccc(Br)c3)nc3c(C)cccn23)cc1,843
8,O=C1NCCCCCCN(C(=O)c2cc(CN3CCOCC3)on2)[C@H]2CCCC[C@@H]12,621
9,CCCn1cc(CCNC(=O)Cc2ccccc2Cl)c2cccnc21,770
10,CCc1ccc(S(=O)(=O)N2CCC(c3noc(-c4cccc(OC)c4)n3)CC2)cc1,1240
11,O=C(NCc1ccc(N2CCCCC2)cc1)c1ccc2ncnc(N3CCCC3)c2c1,561
12,CCOc1ccc(-c2noc(Cn3cnc4c(cnn4-c4cc(Cl)ccc4C)c3=O)n2)cc1OC,1030
13,O=S(=O)(Nc1ccc(F)c(F)c1)c1c[nH]c2ncccc12,739
14,CN(CC1(C)CCOCC1)S(=O)(=O)c1cccc(F)c1,895
15,CCN1C(=O)c2cccc3c(NC(=O)c4ccc(C(=O)OC)cc4)ccc1c23,638
16,COc1cccc(-c2noc(Cc3nnc(-c4cc(C)cc(C)c4)o3)n2)c1OC,1060
17,N#Cc1cccc(-c2cn3c(n2)N(C(=O)Cc2ccsc2)CCC3)c1,822
18,O=C(C1=CN(c2ccc(Br)cc2)c2cc(F)ccc2S1(=O)=O)N1CCOCC1,826
19,Cc1ccccc1OCC(=O)NCc1c(C)noc1C,790
20,Cc1noc(-c2nn(C)c3c2CN(C(=O)CC2CCCC2)CC3)n1,759
21,CN(C(=O)Cc1ccc(Cl)c(Cl)c1)[C@@H](CN1CCCC1)c1ccccc1,718
22,CCC(C)(C)NC(=O)c1ccc2c(c1)N(C(=O)NC)CC2,705

row,SMILES,RP-LC retention time [s]
1,CCN(CC)CCNCc1ccc(-c2ccccc2F)o1,562
2,Cn1cc(C2=CCN(S(=O)(=O)c3ccc(C(C)(C)C)cc3)CC2)c2cccnc21,1230
3,CCOc1ccc(OCC)c(NC(=O)CCc2c(-c3ccc(Cl)cc3)nc3ccccn23)c1,788
4,CN1C(=O)c2cc(S(=O)(=O)Nc3ccc(F)c(Cl)c3)ccc2Oc2cccnc21,962
5,Cc1ccc(-c2noc(Cn3ccnc3)n2)cc1C,659
6,Cc1cc(N2CCCCC2C)n2nc(-c3ccccc3C)nc2n1 (configuration not stated),991
7,Cc1noc(-c2cccc(OC3CN(C(=O)c4cnn(C)c4)C3)c2)n1,700
8,CC(C)CCNC(=O)c1ccc2c(c1)nc(Nc1n[nH]c3ccc(-c4ccccc4OC(F)(F)F)cc13)n2C1CCC(O)CC1 (configuration not stated),957
9,CC(C)(CO)NCc1ccc(-c2ccccc2F)o1,602
10,CS(=O)(=O)c1ccccc1C(=O)Nc1nnc(-c2cc(Cl)sc2Cl)o1,735
11,CC(C)Cn1c(=O)c(N2CCN(C(=O)c3ccc(Cl)cc3)CC2)nc2ccncc21,689
12,O=C(NCCCn1cccn1)c1c(OCC2CC2)cc(=O)n2c1CCCCC2,634
13,CC(=O)N1c2nc(-c3ccccc3)nn2C2(CCCCC2)[C@@H]2CCCC[C@@H]21,1390
14,CN(CCNC(=O)c1ccc2c(c1)NC(=O)C1CCCCN21)C1CCCCC1 (configuration not stated),630
15,N#Cc1cccc(N2C=C(C(=O)N3CCCC3)S(=O)(=O)c3ccccc32)c1,720
16,COc1ccc(-c2cc3c4nnc(CCC(=O)N5CCC(C(N)=O)CC5)n4ccn3n2)cc1,613
17,Cc1nn(-c2ccccc2)c(C)c1S(=O)(=O)N1CCC(C(=O)NC2CCCc3ccccc32)CC1 (configuration not stated),1010
18,CN1C(=O)[C@H]2CN(Cc3cn[nH]c3-c3cccc(Br)c3)C[C@H]2C1=O,612
19,CCOC(=O)c1noc2nc(C)nc(NCc3ccc(CC)cc3)c12,722
20,COc1ccccc1NC(=O)Cn1cnc2nc(N3CCCC(C(=O)NC4CC4)C3)sc2c1=O (configuration not stated),681
21,Cn1cnc2cc(CNC(=O)c3ccc4cc[nH]c4c3)ccc21,603
22,CCCc1nc2cccnc2n1C1CCN(C(=O)NCc2ccccc2)C1 (configuration not stated),603

row,SMILES,RP-LC retention time [s]
1,COc1cc([C@@H]2c3cc4c(cc3[C@H](O)[C@@H](CO)[C@@H]2C(=O)NCCCc2ccccc2)OCO4)cc(OC)c1OC,761
2,CC(NC(=O)c1nnc(-c2ccc(S(=O)(=O)N(C)C)cc2)o1)c1ccccn1 (configuration not stated),683
3,COc1ccc(OC)c(-c2cn3ccn(-c4cccc(Cl)c4C)c(=O)c3n2)c1,924
4,O=C(CCc1c[nH]c2ccccc12)N1[C@H]2CC[C@@H]1c1cnc(-c3ccccc3)nc1C2,884
5,COc1ccc(-c2noc(-c3nnn4c3COC(c3ccc(C)cc3C)C4)n2)cc1 (configuration not stated),1250
6,CCOC(=O)c1cc(S(=O)(=O)N2CCCC2C(=O)Nc2ccc(F)cc2)cn1C (configuration not stated),920
7,CC(C(=O)NCc1cccs1)S(=O)(=O)c1ccc2c(c1)S(=O)(=O)N=CN2 (configuration not stated),628
8,Cc1cc(C(=O)NCC23CCCC=C2NC(=O)CC3)nn1C (configuration not stated),641
9,CC(=O)Nc1ccc(NC(=O)C(=O)NCCN2CCN(c3ccc(Cl)cc3)CC2)cc1,588
10,CCN(C(=O)Cn1ccn2nc(-c3ccccc3)c(CO)c2c1=O)c1ccccc1,838
11,COCCNC(=O)CC1CCN(C(=O)c2[nH]c(C)cc2C)CC1,631
12,COc1ccccc1OCC(=O)Nc1ccc2c(c1)C(=O)Nc1cc(Cl)ccc1O2,873
13,CN(C)C[C@@H]1CN(Cc2ccncc2)C[C@H]1NS(=O)(=O)c1ccc(C#N)cc1,639
14,O=S(=O)(c1cccc2nsnc12)N1CCCC1c1noc(CO)n1 (configuration not stated),682
15,CCOc1cccc(C2C(C(=O)OC(C)C)=C(C)NC3=C2C(=O)C(C(=O)OC)C(C)C3)c1 (configuration not stated),968
16,OCc1cnc(SCc2cccc(C(F)(F)F)c2)n1Cc1ccc2c(c1)OCO2,649
17,COc1cccc(NC(=O)CN2CCc3c(c(=O)c4cc(C)ccc4n3C)C2)c1,609
18,COc1ccc(OC)c(NC(=O)C2CCN(S(=O)(=O)c3cn(C(C)C)cn3)CC2)c1,778
19,O[C@@H]1C[C@@H](c2nnc3n2CCN(Cc2cccc(F)c2)C3)N(Cc2cccnc2)C1,588
20,Cc1ccn2c(NC(=O)c3ccccc3)c(-c3ccccc3)nc2c1,646
21,Cc1nnc(-c2ccc3ccn(CC(=O)Nc4ccc(F)cc4F)c3c2)o1,801
